Here are results for 2 compounds from article PMC10279527, “Structural basis of metabolite transport by the chloroplast outer envelope channel OEP21” (Nature Structural & Molecular Biology, 2023).

The target in experiment [1] is T1, OEP21 variants (single point mutations, ΔL5) (Pisum sativum, UniProt Q9SM57, R33A).
T1 construct: made in house; host or cells: Escherichia coli BL21(DE3) (described for OEP21)
The experiment can be described thus: Fluorescence polarization binding of MANT-ATP to OEP21 variants.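 For all read-outs here: KD obtained by fitting fluorescence polarization data to a one-site binding model, each experiment run in triplicate.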 The arrangement: species or system garden pea. The conditions noted are these: OEP21 variant R33A; for Kd: unit inferred.

The target in experiment [2] is T2, OEP21 variants (single point mutations, ΔL5) (Pisum sativum, UniProt Q9SM57, R174A).
T2 construct: made in house; host or cells: Escherichia coli BL21(DE3) (described for OEP21)
The experiment is described as above. The arrangement: species or system garden pea. The conditions noted are these: OEP21 variant R174A; for Kd: unit inferred.

The target in experiment [3] is T3, OEP21 variants (single point mutations, ΔL5) (Pisum sativum, UniProt Q9SM57, R140A).
T3 construct: made in house; host or cells: Escherichia coli BL21(DE3) (described for OEP21)
The experiment is described as above. More on the design: species or system garden pea. The conditions noted are these: OEP21 variant R140A; for Kd: unit inferred.

The target in experiment [4] is T4, OEP21 variants (single point mutations, ΔL5) (Pisum sativum, UniProt Q9SM57, R66A).
T4 construct: made in house; host or cells: Escherichia coli BL21(DE3) (described for OEP21)
The experiment is described as above. More on the design: species or system garden pea. The conditions noted are these: OEP21 variant R66A; for Kd: unit inferred.

Experiment [5] deals with T5, OEP21 variants (single point mutations, ΔL5) (Pisum sativum, UniProt Q9SM57, R51A).
T5 construct: made in house; host or cells: Escherichia coli BL21(DE3) (described for OEP21)
The experiment is described as above. The conditions noted are these: OEP21 variant R51A, unit inferred. More on the design: species or system garden pea.

Experiment [6] addresses T6, OEP21 variants (single point mutations, ΔL5) (Pisum sativum, UniProt Q9SM57, C109A).
T6 construct: made in house; host or cells: Escherichia coli BL21(DE3) (described for OEP21)
The description is as above. More on the design: species or system garden pea. The conditions noted are these: OEP21 variant C109A; for Kd: unit inferred.

Experiment [7] has as its target T7, OEP21 variants (single point mutations, ΔL5) (Pisum sativum, UniProt Q9SM57, R142A).
T7 construct: made in house; host or cells: Escherichia coli BL21(DE3) (described for OEP21)
The description is as above. The arrangement: species or system garden pea. The conditions noted are these: OEP21 variant R142A; for Kd: unit inferred.

In experiment [8] the target is T8, OEP21 variants (single point mutations, ΔL5) (Pisum sativum, UniProt Q9SM57, R157A).
T8 construct: made in house; host or cells: Escherichia coli BL21(DE3) (described for OEP21)
Described as above. The conditions noted are these: OEP21 variant R157A; for Kd: unit inferred. The arrangement: species or system garden pea.

Experiment [9] concerns the target OEP21 variants (single point mutations, ΔL5). Described as above. The arrangement: species or system garden pea. The conditions noted are these: OEP21 variant dL5; for Kd: unit inferred.
Experiment [10] addresses T9, OEP21 variants (single point mutations, ΔL5) (Pisum sativum, UniProt Q9SM57, K90A).
T9 construct: made in house; host or cells: Escherichia coli BL21(DE3) (described for OEP21)
The description is as above. The arrangement: species or system garden pea. The conditions noted are these: OEP21 variant K90A; for Kd: unit inferred.

Experiment [11] addresses T10, OEP21 variants (single point mutations, ΔL5) (Pisum sativum, UniProt Q9SM57, R84A).
T10 construct: made in house; host or cells: Escherichia coli BL21(DE3) (described for OEP21)
The description is as above. More on the design: species or system garden pea. The conditions noted are these: OEP21 variant R84A; for Kd: unit inferred.

Experiment [12] addresses T11, OEP21ΔL5 (Pisum sativum, UniProt Q9SM57, DEL70-80).
T11 construct: made in house; host or cells: Escherichia coli BL21(DE3) (described for OEP21)
Briefly: NMR titrations of OEP21ΔL5 with metabolites. The format is binding, garden pea. The conditions noted are these: for Kd: KDs dLoop + GAP, dLoop (OEP21ΔL5), unit inferred.

Experiment [13] in a line: ITC of ATP, GAP or phosphate with magnesium. Format: binding. The conditions noted are these: 10 mM HEPES pH7.0, 20 mM NaCl, read-out: KD for Mg^2+. Here is the method:
ITC experiments were performed with a MicroCal PEAQ-ITC instrument (Malvern Panalytical) at 25 °C in 10 mM HEPES pH 7.0, 20 mM NaCl, 0.5 mM EDTA, 1 mM DTT, 50 mM LDAO. […] Curve fitting and data analysis were done with the Malvern PEAQ-ITC software.
(a) (left) 2D-[^15N,^1H]-TROSY NMR spectra of 400 µM ^2H,^15N-labeled OmpX in LDAO micelles in 20 mM sodium phosphate, pH6.0, 50 mM NaCl, 0.5 mM EDTA and the indicated concentrations of D-GAP at 30 °C and 1.2 GHz magnetic field. (right) 2D-projections along the ^1H dimension of the 2D-spectra shown on (left). […] (right) Relative NMR peak intensities derived from the data in (left) and (middle). Buffer: 10 mM Na-phosphate pH7.0, 20 mM NaCl, 7% (v/v) D2O. […] (right) 150 mM MgCl2 was titrated into 15 mM potassium phosphate (Pi). Buffer conditions for all experiments were: 10 mM HEPES pH7.0, 20 mM NaCl.

Where [14] appears, read: individual determinations, read-out: KD1-KD3.

Values joined by “and” are separate entries in the source; they are usually repeats but may differ in a detail not shown here. Equal entries are not always repeated. Where two headings read alike, the source gives them in different places.

T2 sequence (Q9SM57 whole entry L5del/R174A): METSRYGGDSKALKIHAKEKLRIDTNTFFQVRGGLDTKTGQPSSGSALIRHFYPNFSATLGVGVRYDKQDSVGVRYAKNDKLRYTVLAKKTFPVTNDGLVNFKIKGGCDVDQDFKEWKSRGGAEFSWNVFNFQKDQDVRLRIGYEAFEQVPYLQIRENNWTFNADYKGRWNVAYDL
T8 sequence (Q9SM57 whole entry L5del/R157A): as the sequence (Q9SM57 whole entry L5del/R174A) above, with R156A, A173R counted along it
T10 sequence (Q9SM57 whole entry L5del/R84A): as the sequence (Q9SM57 whole entry L5del/R174A) above, with R83A, A173R counted along it
T6 sequence (Q9SM57 whole entry L5del/C109A): as the sequence (Q9SM57 whole entry L5del/R174A) above, with C108A, A173R counted along it
T11 sequence (Q9SM57 other isoform, or with tags, fused parts or gaps DEL70-80): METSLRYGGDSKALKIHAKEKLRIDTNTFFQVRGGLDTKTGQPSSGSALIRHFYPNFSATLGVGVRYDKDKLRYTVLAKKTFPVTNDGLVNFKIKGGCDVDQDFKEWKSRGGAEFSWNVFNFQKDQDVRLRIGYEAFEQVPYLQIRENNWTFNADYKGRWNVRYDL
T3 sequence (Q9SM57 whole entry L5del/R140A): as the sequence (Q9SM57 whole entry L5del/R174A) above, with R139A, A173R counted along it
T7 sequence (Q9SM57 whole entry L5del/R142A): as the sequence (Q9SM57 whole entry L5del/R174A) above, with R141A, A173R counted along it
T4 sequence (Q9SM57 whole entry L5del/R66A): as the sequence (Q9SM57 whole entry L5del/R174A) above, with R65A, A173R counted along it
T5 sequence (Q9SM57 whole entry L5del/R51A): as the sequence (Q9SM57 whole entry L5del/R174A) above, with R50A, A173R counted along it
T1 sequence (Q9SM57 whole entry L5del/R33A): as the sequence (Q9SM57 whole entry L5del/R174A) above, with R32A, A173R counted along it
T9 sequence (Q9SM57 whole entry L5del/K90A): as the sequence (Q9SM57 whole entry L5del/R174A) above, with K89A, A173R counted along it

With “2′-(or-3′)-O-(N-methylanthraniloyl) adenosine 5′-triphosphate [Mant-ATP]”, the Kd was 142 nM and 125 nM and 126 nM in [1] (setting [14]); 131 nM in experiment [1] (read-out: mean KD); 429 nM and 300 nM and 297 nM in experiment [2] (setting [14]); 342 nM in experiment [2] (read-out: mean KD); 233 nM and 286 nM and 307 nM in experiment [3] (setting [14]); 275 nM in experiment [3] (read-out: mean KD). For the same compound, the Kd in experiment [4] (setting [14]) is 214 nM and 195 nM and 190 nM; in experiment [4] (read-out: mean KD) it was 200 nM; in experiment [5] (setting [14]), 142 nM and 101 nM and 206 nM; in experiment [5] (read-out: mean KD), 150 nM; in experiment [6] (setting [14]), 190 nM and 220 nM and 213 nM; in [6] (read-out: mean KD) it was 208 nM. For the same compound, the Kd in [7] (setting [14]) is 270 nM and 331 nM and 267 nM; in [7] (read-out: mean KD), 289 nM; in experiment [8] (setting [14]), 248 nM and 258 nM and 335 nM; in [8] (read-out: mean KD), 280 nM; in [9] (setting [14]), 214 nM and 204 nM and 297 nM; in experiment [9] (read-out: mean KD) it was 238 nM. The Kd in experiment [10] (setting [14]) was 293 nM and 271 nM and 247 nM; in experiment [10] (read-out: mean KD), 270 nM; in experiment [11] (setting [14]), 264 nM and 249 nM and 350 nM; in [11] (read-out: mean KD), 288 nM. Also, the “rel KD1-KD3” value in experiment [1] (relative to mean KD of wt) is 0.7802 and 0.6868 and 0.6923; in experiment [2] (relative to mean KD of wt), 2.357 and 1.648 and 1.632; in experiment [3] (relative to mean KD of wt) it was 1.28 and 1.571 and 1.687; in experiment [4] (relative to mean KD of wt) it was 1.176 and 1.071 and 1.044; in experiment [6] (relative to mean KD of wt) it was 1.044 and 1.209 and 1.17; in [7] (relative to mean KD of wt) it was 1.484 and 1.819 and 1.467. In addition, the “rel KD1-KD3” value in experiment [8] (relative to mean KD of wt) is 1.363 and 1.418 and 1.841; in experiment [9] (relative to mean KD of wt), 1.176 and 1.121 and 1.632; in [10] (relative to mean KD of wt) it was 1.61 and 1.489 and 1.357; in experiment [11] (relative to mean KD of wt), 1.451 and 1.368 and 1.923.
On to `O=C[C@H](O)COP(=O)(O)O` [GAP, D-glyceraldehyde-3-phosphate], for which the Kd in [12] (Mean, mean) was 730 µM; in experiment [12] (individual KDs), 702 µM and 649 µM and 747 µM and 728 µM and 616 µM and 657 µM and 634 µM and 730 µM and 906 µM and 897 µM and 764 µM; in [13], ~9 mM and 9 mM. Moreover, the “effect of L5 on binding affinity (in words)” value in experiment [12] (NMR, Fig. 3h, OEP21 versus OEP21ΔL5) was “approximately a fourfold increase in binding affinity”.
